Data taken from patent publication US20090209620A1, “Direct Reversal Of The Suppressive Function Of CD4+Regulatory T Cells Via Toll-Like Receptor 8 Signaling” (priority 2005, published 2009).
Entries after “also recorded” stand apart in the source; their conditions may differ. In the oligonucleotide strings, read from the 5' end, every base follows the letter of its sugar. An asterisk marks phosphorothioate; unmarked linkages are phosphodiester. Other units and linkages are bracketed, terminal groups are in braces. A string of capitals states the bases alone. d = 2'-deoxy (DNA)

What was measured:
Format in all cases: cell-based, human
[1] = test system: Treg164 cells; assay: Reversibility of siRNA-transduced Treg164 cells by Poly-G10 (functional proliferation assay)
Source text: (§1) Several siRNA sequences (19 nucleotides) for each gene were selected with use of computer-assisted programs. Oligonucleotides containing a siRNA sequence, 8 nucleotide spacers, and a polyT terminator sequence were annealed and then cloned into the HapI and XhoI sites of GFP-expressing pLentilox3.7 vector using methods well known in the art (See, e.g., D. A. Rubinson et al., Nat. Genet. 33, 401-6 (2003)). siRNA was under the control of a U6 promoter. The following DNA sequences used to construct siRNAs for IRAK4, MyD88, and TLR7, 8 and 9, were effective in silencing their corresponding genes:
5×10^6 293T cells were pre-seeded onto 100-mm dishes and transfected with 12 μg siRNA lentiviral DNA, 12 μg VSV-G plasmid DNA and 12 μg packaging viral CMV delta 8.9 plasmid, using Lipofectamine 2000. After the addition of fresh culture medium 8 h later, the cells were cultured for an additional 2-3 days. Viral supernatants were harvested, passed through a […] filter and concentrated by ultracentrifugation at 20,000 rpm for 2 h. Virus pellets were resuspended in a small volume of medium, and viral titers were determined by infecting 293T cells with serially diluted doses of virus. […] Transduction efficiency was analyzed at 3 or 4 days post-transduction, and the cells were sorted into GFP^+and GFP^−cells with a FACS ARIA sorter. […]

[2] = test system: Treg102 cells; assay: Reversibility of siRNA-transduced Treg102 cells by Poly-G10 (functional proliferation assay)
Source text: as §1
5×10^6 293T cells were pre-seeded onto 100-mm dishes and transfected with 12 μg siRNA lentiviral DNA, 12 μg VSV-G plasmid DNA and 12 μg packaging viral CMV delta 8.9 plasmid, using Lipofectamine 2000. After the addition of fresh culture medium 8 h later, the cells were cultured for an additional 2-3 days. Viral supernatants were harvested, passed through a […] filter and concentrated by ultracentrifugation at 20,000 rpm for 2 h. Virus pellets were resuspended in a small volume of medium, and viral titers were determined by infecting 293T cells with serially diluted doses of virus. For transduction of T cells, T cells (2×106 ) were first activated by OKT3 (2 ug/ml)-coated plates and then were mixed with the concentrated lentiviral supernatant with a multiplicity of infection (MOI) of 10-15 in a total volume of 0.5 ml T cell medium containing 8 ug/ml polybrene (Sigma), and then span at 1000×g for 1 h at room temperature. After 16 h of incubation, 0.5 ml of T cell medium was added to each well. Forty-eight hours later, the T cells were transduced again with the same concentrated viral supernatants. Transduction efficiency was analyzed at 3 or 4 days post-transduction, and the cells were sorted into GFP^+and GFP^−cells with a FACS ARIA sorter. The sorted cells (GFP^+and GFP^−) and untransduced Treg cells were then used to determine their reversibility by Poly-G10 in functional proliferation assays.
The current model of TLR signaling pathways predicts that TLR1, 2, 5, 6, 7, 8, and 9 use MyD88 as their sole receptor-proximal adaptor to transduce signals, TLR3 uses interferon-regulated factor 3 (IRF3) for the production of IFN-α in response to pathogen recognition, while TLR4 is linked to both MyD88-dependent and MyD88 independent pathways. Since MyD88 is important for the signaling activities of most TLRs, it stood to reason that its dependent pathway, in which IRKA4 transduces signals from MyD88 to TRAF6 and other downstream molecules, would likely be involved in TLR signaling initiated by guanosine-containing oligonucleotides. Four or five eGFP-expressing lentiviral constructs containing U6-driven siRNAs were made for each gene and were tested their abilities to specifically knock down their respective target proteins. In FIG. 3A, the efficiency of knock down by siRNA was determined by Western blot analysis. Both IRAK4 and MyD88 were tagged with a FLAG epitope, and detected by anti-FLAG antibody (M2). 293T cells transfected with either FLAG-IRAK4 or FLAG-MyD88 served as positive controls, while nontranseffected 293T cells were negative controls. The amount of β-actin in each lane served as loading controls for the samples. […] Treg102 cells were next transduced with an IRAK4 siRNAl lentivirus. After 3 days in culture, they were sorted by FACS into transduced (GFP^+) and untransduced (GFP^− control) Treg cell populations (FIG. 3B). The purity of GFP^+ and GFP^− cells was confirmed by FACS analysis. […] This notion was further supported by experiments in which Treg102 cells were transduced with MyD88 siRNAs. […] For FIG. 3C, uninfected parental Treg108 cells and Poly-T10 oligonucleotides served as controls. Data are presented as means±SD and represent results from three independent experiments. Similar results were obtained with Treg164 cell lines. […]

[3] = test system: CD4+ Treg cells; assay: Pretreatment of Treg cells, then proliferation assay with naive CD4+ T cells (without DCs); conditions: Treg cells pretreated 3 days, washed, then mixed with naive CD4+ T cells
Procedure: C. Pretreatment of Treg cells: 1×10^6 Treg cells were cultured in medium containing CpG-A (3 ug/ml), CpG-B (3 ug/ml), LPS (100 ng/ml), TNF.-α (20 ng/ml), IFN-α (100 ng/ml) or IL-6 (100 ng/ml) for 3 days. After three washes, the pretreated Treg cells were cultured with näive CD4^+ T cells in anti-CD3 mAb-coated plates (without DCs) to determine their suppressive function. After 56 h of culture, [3H]thymidine was added at a final concentration of 1 uCi/well, and cultured for an additional 16 h. The incorporation of [^3H]thymidine was measured with a liquid scintillation counter.
To exclude the possibility that the purified naive CD4^+ T cells might have been contaminated with a small number of monocytes or DCs, cultured CD4^+ Treg cells (100% purity) were pretreated with CpG-A (SEQ ID NO: 1) for 3 days. After three washes, the pretreated CD4^+ Treg cells were mixed with naive CD4^+ T cells in anti-CD3 antibody-coated plates to evaluate their ability to suppress the proliferation of naive CD4^+ T cells.
To determine whether the CpG motif in CpG A confers the ability to reverse the suppressive function of CD4^+ Treg cells, CD4^+ Treg cell lines were pretreated for 3 days with CpG-A (SEQ ID NO: 1), non-CpG-A (CG changed to GC in CpG-A; SEQ ID NO: 3), CpG B (SEQ ID NO: 2) or non-CpG-B (CG changed to GC in CpG-B; SEQ ID NO: 4), and used them in proliferation assays following extensive washes.
Treg cells were pretreated with Poly-G2 (SEQ ID NO: 15) in different concentrations of chloroquine to examine whether acidification is required for the function of guanosine containing oligonucleotides. After extensive washes, the pretreated Treg cells were used for functional assays.

Substance	reversibility of suppression by Poly-G10 ([1]; IRAK4 siRNA-transduced (GFP+) Treg164 cells)	reversibility of suppression by Poly-G10 ([1]; MyD88 siRNA-transduced (GFP+) Treg164 cells)	reversibility of suppression by Poly-G10 ([2]; IRAK4 siRNA-transduced (GFP+) Treg102 cells)	reversibility of suppression by Poly-G10 ([2]; MyD88 siRNA-transduced (GFP+) Treg102 cells)	reversibility of suppression by Poly-G10 ([2]; TLR7 siRNA or TLR9 siRNA-transduced (GFP+) Treg cells)	reversibility of suppression by Poly-G10 ([2]; TLR8 siRNA-transduced (GFP+) Treg102 cells)	reversibility of suppression by Poly-G10 ([2]; Treg cells transduced with control siRNA virus)	reversibility of suppression by Poly-G10 ([2]; untransduced (GFP-) Treg102 cells)	reversal of suppressive function of CD4+ Treg cells after pretreatment [3]
Poly-G10: guanosine oligonucleotide with protected phosphorothioate backbone (DNA dG*dG*dG*dG*dG*dG*dG*dG*dG*dG)	lost the capacity to reverse their suppressive function	lost the capacity to reverse their suppressive function	could not be reversed	completely lost their ability to respond	retained the same reversible suppressive function	could not be reversed	Neither the suppressive activity nor the reversibility of the suppression was affected	reversed as readily as the parental Treg102 cells	
G* GGGGACGATCGTCG* G*G*G*G*G [CpG-A]									reverses their suppressive function; also recorded: reversed the suppressive effect; also recorded: reversed the suppressive activities of CD4^+ Treg cells equally well
